According to patent publication US20110288036A1, “Methods for Treating or Preventing Vascular Graft Failure” (priority 2010, published 2011):

Key:
PRAK = biological target: T1, PRAK (Homo sapiens, UniProt Q8IW41); assay: PRAK radiometric kinase assay; format: biochemical; settings: peptide 100 μM
T1 construct: purchased Millipore (KinaseProfiler service)
From the text: A commercial radiometric assay service was used to test the specificity and potency of MMI-0100 ([…]; SEQ ID NO: 1) by measuring its half maximal inhibitory concentrations (IC50). This quantitative assay measures how much MK2 inhibitor (MMI-0100; […] (SEQ ID NO: 1)) is needed to inhibit 50% of a given biological process or component of a process (i.e., an enzyme, cell, or cell receptor). Specifically, in these assays, a positively charged substrate is phosphorylated with a radiolabeled phosphate group from an ATP if the kinase is not inhibited by an inhibitor peptide. The positively charged substrate then is attracted to a negatively charged filter membrane, quantified with a scintillation counter, and compared to a 100% activity control. ATP concentrations within 15 μM of the apparent Km for ATP were chosen since an ATP concentration near the Km may allow for the kinases to have the same relative amount of phosphorylation activity. The individual conditions for each radiometric assay are as follows. […]
IC50 values for inhibitor peptides were determined using Millipore's IC50 Profiler Express service. […]

[1] = system: human smooth muscle cell (SMC); assay: MTS cell proliferation assay, smooth muscle cells; format: cell-based; settings: pre-treatment 20 ng/ml TNF-α
Procedure: Primary human aortic endothelial cells (HAEC) and primary human aortic smooth muscle cells (HASMC) were obtained from Invitrogen; primary human coronary artery endothelial cells (HCAEC) were obtained from Lonza.
All cultures were maintained in 25 cm^2 polystyrene tissue culture flasks in a 37° C., 5% CO2/95% air environment, with cell culture media refreshed every other day. All cells were seeded at a density of 20,000˜30,000 cells/cm^2, as required by the specific experiment, and allowed to grow to 80-90% confluence before being harvested/passaged. Only cells from early passages (numbers 2-8) were utilized in experiments.
The CellTiter 96® AQueous Non-Radioactive Cell Proliferation Assay (Promega) was used to assess drug effects on cell proliferation according to the manufacturer's instructions. Briefly, HAECs and HASMCs from early passages were grown to 80-90% confluence in 25 cm^2 tissue culture flasks in a 37° C./5% CO2 incubator prior to harvest. 200 μl of each type of cell suspension (at 20,000 cells/cm^2) was seeded onto separate 96-well plates to yield an approximate 60% confluence per well. Cells were allowed to adhere to the plate surface overnight, followed by addition of 20 ng/ml of TNF-α to stimulate production of inflammatory agents. After a 4-6 hour incubation period, MMI-0100 peptide drug ([…]; SEQ ID NO: 1) was added and cells incubated for another 20-24 hours. Each well was then supplemented with 100 μl of fresh medium and 20 μl of CellTiter 96® AQueous One Solution Reagent and incubated for an additional 1.5-2 hours prior to measuring absorbance of each well at 490 nm with a SoftMax®-equipped plate reader.
(§1) In order to determine the effect of pharmacological doses of MMI-0100 ([…]; SEQ ID NO: 1) on human endothelial cell (EC) and smooth muscle cell (SMC) proliferation, human EC and SMC cultures were treated with three concentrations (0.25 mM, 0.5 mM, and 1 mM) of MMI-0100 ([…] (SEQ ID NO: 1)) following pre-treatment with TNF-α.

[2] = system: human endothelial cell (EC); assay: Phase contrast morphology, endothelial cells; format: cell-based; settings: 24 hours treatment, vs control cells
Procedure: as §1

T1 sequence (Q8IW41 whole entry, species assumed): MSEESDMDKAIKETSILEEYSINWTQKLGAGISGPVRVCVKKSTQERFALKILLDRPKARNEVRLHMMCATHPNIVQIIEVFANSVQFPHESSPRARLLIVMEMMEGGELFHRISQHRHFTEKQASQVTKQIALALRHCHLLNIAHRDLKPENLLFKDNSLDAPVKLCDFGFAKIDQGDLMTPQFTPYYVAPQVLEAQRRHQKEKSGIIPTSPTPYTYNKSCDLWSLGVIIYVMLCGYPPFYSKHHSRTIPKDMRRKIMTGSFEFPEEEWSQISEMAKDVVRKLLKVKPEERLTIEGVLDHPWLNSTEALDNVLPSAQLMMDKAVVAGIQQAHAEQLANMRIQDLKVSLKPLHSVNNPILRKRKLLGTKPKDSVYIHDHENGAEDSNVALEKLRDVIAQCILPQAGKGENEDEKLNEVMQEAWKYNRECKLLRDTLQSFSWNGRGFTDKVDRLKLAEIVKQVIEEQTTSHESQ

YARAAARQARAKALARQLGVAA [MMI-0100]
Percent Activity, PRAK (PRAK): 100% | SMC proliferation vs TNF-α alone control ([1]; 0.25 mM): slightly increased cell proliferation | increase in SMC proliferation vs TNF-α alone control ([1]; 0.5 mM): 12% | increase in SMC proliferation vs TNF-α alone control ([1]; 1 mM): 7% | morphological changes of EC [2]: no obvious morphological changes
